For assay [1], the system named is TFEB. The assay is described as follows: TFEB nuclear translocation assay. In kind it is cell-based. Particulars: Homo sapiens; HeLa wt or HeLa TRPML1 KO cells, treated for 2 hrs; ratio of nuclear to ring-region TFEB intensity. In a few lines: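 HeLa wild-type or TRPML1 KO cells treated 2 h with compound at 37 °C, PFA-fixed, immunostained for TFEB (Alexa 488) with Hoechst nuclei. Imaged at ×20, four fields/well. Value is ratio of nuclear to perinuclear-ring TFEB intensity, with nuclei counts.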

Assay [2] relates to THP-1 cells. Kind of assay: Lamp1 lysosomal exocytosis assay. Type of assay: cell-based. The conditions noted are these: Homo sapiens, 55 min, 55 min incubation, top dose 20 μM. The essentials: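 THP-1 cells (1e5/well) exposed to a 7-point 3-fold compound series, top final 20 μM, for 55 min at 37°C. Surface Lamp1 then stained with Lamp1-PE on ice in buffer containing 80 μM Dynasore, and read by flow cytometry as PE geometric mean on live, sytox-negative singlets.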

pEC50: −log10 of the molar value. Some results are limits rather than exact numbers.

In general, pEC50 refers to the negative decadic logarithm of the EC50, by convention in mol/L. On to `O=C(OCc1cccnc1)N1CCC2(CC1)CN(S(=O)(=O)c1ccc(C(F)F)cc1)c1ccccc12` [Compound I-158, (pyridin-3-yl)methyl 1-[4-(difluoromethyl)benzenesulfonyl]-1,2-dihydrospiro[indole-3,4′-piperidine]-1′-carboxylate], for which the results for the negative-log EC50 (pEC50) in assay [1] and in assay [2] were ≥ 5.70 and 6.00 to 6.29, respectively.
Taken in the same sequence, the figures for `CC(C)OC(=O)N1CCC2(CC1)CN(S(=O)(=O)c1ccc(C(F)F)cc1)c1ccccc12` [Compound I-160, propan-2-yl 1-[4-(difluoromethyl)benzenesulfonyl]-1,2-dihydrospiro[indole-3,4′-piperidine]-1′-carboxylate] were ≥ 5.70 and ≥ 6.30.
On the same counts, the results for `O=C(c1ccccc1)N1CCC2(CC1)CN(S(=O)(=O)c1ccc(C(F)F)cc1)c1ccccc12` [Compound I-161, 1′-benzoyl-1-[4-(difluoromethyl)benzenesulfonyl]-1,2-dihydrospiro[indole-3,4′-piperidine]] are 5.10 to 5.70 and 5.30 to 6.00.
Taken in the same sequence, the figures for `O=C(C1CC1)N1CCC2(CC1)CN(S(=O)(=O)c1ccc(C(F)F)cc1)c1ccccc12` [Compound I-162, 1′-cyclopropanecarbonyl-1-[4-(difluoromethyl)benzenesulfonyl]-1,2-dihydrospiro[indole-3,4′-piperidine]] were ≤ 5.00 and ≤ 5.30.
For `O=S(=O)(c1ccc(C(F)F)cc1)N1CC2(CCN(Cc3cnccn3)CC2)c2ccccc21` [Compound I-163, 1-[4-(difluoromethyl)benzenesulfonyl]-1′-[(pyrazin-2-yl)methyl]-1,2-dihydrospiro[indole-3,4′-piperidine]], the figures for the pEC50 in assay [1] and in assay [2] were ≥ 5.70 and ≤ 5.30, respectively.
Regarding `O=S(=O)(c1ccc(C(F)F)cc1)N1CC2(CCN(Cc3ccccn3)CC2)c2ccccc21` [Compound I-164], the pEC50 was ≥ 5.70 in assay [1] and ≤ 5.30 in assay [2].
For the compound `O=S(=O)(c1ccc(C(F)F)cc1)N1CC2(CCN(Cc3cccnc3)CC2)c2ccccc21` [Compound I-165, 1-[4-(difluoromethyl)benzenesulfonyl]-1′-[(pyridin-3-yl)methyl]-1,2-dihydrospiro[indole-3,4′-piperidine]], the values for the negative-log EC50 (pEC50) in assay [1] and in assay [2] were 5.10 to 5.70 and ≤ 5.30, respectively.
On to `O=S(=O)(c1ccc(C(F)F)cc1)N1CC2(CCN(Cc3ccncc3)CC2)c2ccccc21` [Compound I-166, 1-[4-(difluoromethyl)benzenesulfonyl]-1′-[(pyridin-4-yl)methyl]-1,2-dihydrospiro[indole-3,4′-piperidine]], for which the negative logarithm of the EC50 (pEC50) in assay [1] was ≥ 5.70; in assay [2], ≤ 5.30.
On the same counts, the results for `O=S(=O)(c1ccc(C(F)F)cc1)N1CC2(CCN(Cc3ncccn3)CC2)c2ccccc21` [Compound I-167, 1-[4-(difluoromethyl)benzenesulfonyl]-1′-[(pyrimidin-2-yl)methyl]-1,2-dihydrospiro[indole-3,4′-piperidine]] are 5.00 to 5.10 and ≤ 5.30.
As for `O=S(=O)(c1ccc(C(F)F)cc1)N1CC2(CCN(Cc3ccccc3)CC2)c2ccccc21` [Compound I-168, 1′-benzyl-1-[4-(difluoromethyl)benzenesulfonyl]-1,2-dihydrospiro[indole-3,4′-piperidine]], the pEC50 is ≥ 5.70 in assay [1] and ≤ 5.30 in assay [2].
Taken in the same sequence, the figures for `O=C(Oc1ccccc1)N1CCC2(CC1)CN(S(=O)(=O)c1ccc(C(F)F)cc1)c1ccccc12` [Compound I-169, phenyl 1-((4-(difluoromethyl)phenyl)sulfonyl)spiro[indoline-3,4′-piperidine]-1′-carboxylate] were ≥ 5.70 and ≤ 5.30.
On the same counts, the results for `O=C(OCC1CC1)N1CCC2(CC1)CN(S(=O)(=O)c1ccc(C(F)F)cc1)c1ccccc12` [Compound I-170, cyclopropylmethyl 1-((4-(difluoromethyl)phenyl)sulfonyl)spiro[indoline-3,4′-piperidine]-1′-carboxylate] are ≥ 5.70 and 6.00 to 6.29.
`O=C(CCc1ccccc1)N1CCC2(CC1)CN(S(=O)(=O)c1ccc(C(F)F)cc1)c1ccccc12` [Compound I-174, 1-(1-((4-(difluoromethyl)phenyl)sulfonyl)spiro[indoline-3,4′-piperidin]-1′-y1)-3-phenylpropan-1-one]: the negative-log EC50 (pEC50) in assay [1] was ≥ 5.70; in assay [2] it was ≥ 6.30.
On the same counts, the results for `CN(Cc1ccccc1)C(=O)N1CCC2(CC1)CN(S(=O)(=O)c1ccc(C(F)F)cc1)c1ccccc12` [Compound I-178, N-benzyl-1-((4-(difluoromethyl)phenyl)sulfonyl)-N-methylspiro[indoline-3,4′-piperidine]-1′-carboxamide] are 5.10 to 5.70 and 6.00 to 6.29.
Taken in the same sequence, the figures for `CS(=O)(=O)c1ccc(S(=O)(=O)N2CC3(CCN(C(=O)OCc4ccccc4)CC3)c3ccccc32)cc1` [Compound I-180] were ≥ 5.70 and ≥ 6.30.
On to `CC(C)S(=O)(=O)c1ccc(S(=O)(=O)N2CC3(CCN(C(=O)OCc4ccccc4)CC3)c3ccccc32)cc1` [Compound I-181, benzyl 1-[4-(propane-2-sulfonyl)benzenesulfonyl]-1,2-dihydrospiro[indole-3,4′-piperidine]-1′-carboxylate], for which the pEC50 in assay [1] was ≥ 5.70; in assay [2], ≥ 6.30.
Taken in the same sequence, the figures for `O=C(OCc1ccccc1)N1CCC2(CC1)CN(S(=O)(=O)c1ccc3c(c1)CCS3(=O)=O)c1ccccc12` [Compound I-182, benzyl 1-((1,1-dioxido-2,3-dihydrobenzo[b]thiophen-5-yl)sulfonyl)spiro[indoline-3,4′-piperidine]-1′-carboxylate] were ≥ 5.70 and ≤ 5.30.
On the same counts, the results for `O=C(OCc1ccccc1)N1CCC2(CC1)CN(C(=O)c1ccccc1)c1ccccc12` [Compound I-184, benzyl 1-benzoyl-1,2-dihydrospiro[indole-3,4′-piperidine]-1′-carboxylate] are ≤ 5.00 and ≤ 5.30.
For the compound `O=C(OCc1ccccc1)N1CCC2(CC1)CN(S(=O)(=O)c1ccc(S(=O)(=O)C(F)F)cc1)c1ccccc12` [Compound I-186, benzyl 1-((4-((difluoromethyl)sulfonyl)phenyl)sulfonyl)spiro[indoline-3,4′-piperidine]-1′-carboxylate], the results for the pEC50 in assay [1] and in assay [2] were ≥ 5.70 and ≥ 6.30, respectively.
Taken in the same sequence, the figures for `O=C(OCc1ccccc1)N1CCC2(CC1)CN(S(=O)(=O)c1ccc(C(F)(F)F)nc1)c1ccccc12` [Compound I-187, benzyl 1-((6-(trifluoromethyl)pyridin-3-yl)sulfonyl)spiro[indoline-3,4′-piperidine]-1′-carboxylate] were ≥ 5.70 and 6.00 to 6.29.
For the compound `O=C(OCc1ccccc1)N1CCC2(CC1)CN(S(=O)(=O)c1ccc(C3CC3)cc1)c1ccccc12` [Compound I-188, benzyl 1-((4-cyclopropylphenyl)sulfonyl)spiro[indoline-3,4′-piperidine]-1′-carboxylate], the pEC50 in assay [1] was ≥ 5.70; in assay [2] it was ≤ 5.30.
On the same counts, the results for `CC1(C)Cc2cc(S(=O)(=O)N3CC4(CCN(C(=O)OCc5ccccc5)CC4)c4ccccc43)ccc2O1` [Compound I-189, benzyl 1-((2,2-dimethyl-2,3-dihydrobenzofuran-5-yl)sulfonyl)spiro[indoline-3,4′-piperidine]-1′-carboxylate] are ≥ 5.70 and ≥ 6.30.
Taken in the same sequence, the figures for `CC(C)C(=O)N1CC2(CCN(C(=O)OCc3ccccc3)CC2)c2ccccc21` [Compound I-190, benzyl 1-(2-methylpropanoyl)-1,2-dihydrospiro[indole-3,4′-piperidine]-1′-carboxylate] were ≤ 5.00 and ≤ 5.30.
Taken in the same sequence, the figures for `O=C(OCc1ccccc1)N1CCC2(CC1)CN(C(=O)C1(c3ccccc3)CC1)c1ccccc12` [Compound I-191, benzyl 1-(1-phenylcyclopropanecarbonyl)-1,2-dihydrospiro[indole-3,4′-piperidine]-1′-carboxylate] were 5.10 to 5.70 and ≤ 5.30.
Turning to `O=C(Nc1ccc2c(c1)CCO2)N1CCC2(CC1)CN(S(=O)(=O)c1ccc(C(F)F)cc1)c1ccccc12` [Compound I-219, 1-((4-(difluoromethyl)phenyl)sulfonyl)-N-(2,3-dihydrobenzofuran-5-yl)spiro[indoline-3,4′-piperidine]-1′-carboxamide], the pEC50 in assay [1] is ≤ 5.00; in assay [2] it was ≤ 5.30.
For `O=C(Nc1ccc2c(c1)OCO2)N1CCC2(CC1)CN(S(=O)(=O)c1ccc(C(F)F)cc1)c1ccccc12` [Compound I-220, N-(benzo[d][1,3]dioxol-5-yl)-1-((4-(difluoromethyl)phenyl)sulfonyl)spiro[indoline-3,4′-piperidine]-1′-carboxamide], the pEC50 was 5.10 to 5.70 in assay [1] and ≤ 5.30 in assay [2].
On the same counts, the results for `O=C(Nc1cccc(C(F)F)c1)N1CCC2(CC1)CN(S(=O)(=O)c1ccc(C(F)F)cc1)c1ccccc12` [Compound I-221, N-(3-(difluoromethyl)phenyl)-1-((4-(difluoromethyl)phenyl)sulfonyl)spiro[indoline-3,4′-piperidine]-1′-carboxamide] are 5.10 to 5.70 and ≤ 5.30.
On the same counts, the results for `O=C(NC1COc2ccccc2C1)N1CCC2(CC1)CN(S(=O)(=O)c1ccc(C(F)F)cc1)c1ccccc12` (centres unmarked) [Compound I-222, N-(chroman-3-yl)-1-((4-(difluoromethyl)phenyl)sulfonyl)spiro[indoline-3,4′-piperidine]-1′-carboxamide] are ≥ 5.70 and ≤ 5.30.

These data come from patent US20230416262A1, “TRPML MODULATORS” (Casma Therapeutics, Inc., priority 2020, published 2023).
